Drawing on article PMC6934184, “Selective DNA-PKcs inhibition extends the therapeutic index of localized radiotherapy and chemotherapy” (The Journal of Clinical Investigation, 2019), this text covers inhibition for one compound.

SMILES strings stand for the structures.

For this experiment, the target named is T1, EPHB4 (Homo sapiens, UniProt P54760).
T1 construct: purchased Thermo Fisher Scientific (Life Technologies) SelectScreen
Nature of the experiment: SelectScreen Z'LYTE. In kind it is biochemical. The gist of the method:
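NU5455 was profiled across the SelectScreen Broad panel of kinase activity and binding assays. Z'LYTE reactions such as CSF1R ran at apparent Km ATP, while the Adapta CAMK1 assay used ATP listed as 10. Values are given as percent.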

T1 sequence (P54760 16-987): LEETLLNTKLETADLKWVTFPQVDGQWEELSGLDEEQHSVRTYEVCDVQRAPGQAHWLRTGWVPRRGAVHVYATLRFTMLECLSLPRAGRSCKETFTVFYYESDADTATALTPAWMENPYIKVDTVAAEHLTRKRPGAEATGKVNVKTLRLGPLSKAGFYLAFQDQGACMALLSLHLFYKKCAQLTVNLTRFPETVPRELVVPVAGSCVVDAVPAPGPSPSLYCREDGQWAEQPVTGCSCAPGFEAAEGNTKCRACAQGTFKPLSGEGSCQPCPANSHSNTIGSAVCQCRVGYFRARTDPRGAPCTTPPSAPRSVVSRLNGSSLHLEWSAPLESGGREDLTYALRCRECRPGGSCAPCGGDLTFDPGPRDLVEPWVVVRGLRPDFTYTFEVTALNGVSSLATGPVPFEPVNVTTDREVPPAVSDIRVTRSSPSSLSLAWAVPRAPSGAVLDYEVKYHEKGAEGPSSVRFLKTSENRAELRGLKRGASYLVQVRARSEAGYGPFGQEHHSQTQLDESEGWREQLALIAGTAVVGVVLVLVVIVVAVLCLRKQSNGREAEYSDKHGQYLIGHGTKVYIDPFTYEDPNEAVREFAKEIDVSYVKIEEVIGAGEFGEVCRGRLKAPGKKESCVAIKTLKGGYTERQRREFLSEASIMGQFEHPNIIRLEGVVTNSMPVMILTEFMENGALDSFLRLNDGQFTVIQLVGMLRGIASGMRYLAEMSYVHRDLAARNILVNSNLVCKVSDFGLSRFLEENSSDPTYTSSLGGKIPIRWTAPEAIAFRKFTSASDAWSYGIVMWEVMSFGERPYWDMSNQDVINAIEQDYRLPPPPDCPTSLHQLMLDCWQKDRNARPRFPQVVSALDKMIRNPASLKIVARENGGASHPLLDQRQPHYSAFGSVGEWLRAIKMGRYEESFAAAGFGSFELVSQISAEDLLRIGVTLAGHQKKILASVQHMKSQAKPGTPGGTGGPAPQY

For the compound `CN(C(=O)CN1CCOCC1)c1ccc2sc3c(-c4cccc5c(=O)cc(N6CC7CCC(C6)O7)oc45)cccc3c2c1` [NU5455], the inhibition (usually the drop in the measured response relative to a control, in per cent) at 1 µM was -5.3%.
